Data on three compounds can be found in US11590129B2, “Combination therapy with an antitumor alkaloid” (PHARMA MAR, S.A., priority 2010, dated 2023).

The subject of assay [1] is HGC-27 human gastric carcinoma cell line. Put plainly: cells.
Assay [2] has as its system PANC-1 human pancreatic carcinoma cell line. Put plainly: cells. The method in brief:
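Cells seeded at 5,000/well, left 24 h drug-free, then exposed to test compounds for 72 h. Viability read by MTT reduction (MTT added for 8 h at 37° C, formazan dissolved in DMSO).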

Assay [3] concerns SK-MEL-2 human melanoma cell line. Put plainly: cells. The method in brief: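 SK-MEL-2 melanoma cells (5,000/well) grown 24 h drug-free, then exposed 72 h to vehicle or test compounds. Viability by MTT reduction (8 h, 37 °C), formazan dissolved in DMSO; results expressed as percentage of control cell growth.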
Assay [4] relates to A673 human rhabdomyosarcoma cell line. Put plainly: cells. The method in brief:
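A673 cells seeded at 5,000 per well, grown 24 h drug-free, then exposed to compounds for 72 h. Viability by MTT reduction (8 h, 37 °C), formazan dissolved in DMSO. Results expressed as percentage of control cell growth.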

For assay [5], the system named is A549 human lung carcinoma cell line. Put plainly: MTT cytotoxicity assay in A549 cells: IC50 of single agents and combinations with PM01183. The settings on record: Homo sapiens, A549, 72 h. It is filed as cell-based. The method in brief:
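A549 cells seeded at 5,000 per well, grown 24 h drug-free, then exposed to vehicle or compounds for 72 h, either singly or combined with PM01183. Combination responses plotted against dose ratio relative to an additivity line.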

The subject of assay [6] is U-937 human lymphoma cell line. The assay can be described thus: cells. How it is done: (§1) Briefly, cells were seeded in 96 well microtiter plates at a density of 50000 cells per well in 150 μL of culture medium and incubated for 4-6 hours in drug-free medium before treatment with vehicle alone or test compounds for 72 hours.
(§2) After incubation, the cytotoxic effect was evaluated using a MTT reduction assay. 50 μL of MTT solution (1 mg/mL) were added to the wells and incubated for 15-17 hours at 37° C. until formazan crystals were formed. After gently removing the culture medium, DMSO was added to dissolve the insoluble purple formazan product into a colored solution. […] Results were expressed as percentage of control cell growth. The EC50 values (half-maximal effective concentration) used for the combination studies were calculated using Prism v5.02 software (GraphPad). EC50 was expressed as molar concentration and represented the mean of at least three independent assays.
(§3) Using these starting concentrations, constant serial dilutions were performed to generate the concentration-response curves for each set of drugs, alone and in combination.
(§4) Based on this equation, the term “combination index” (CI) is used as a quantitative measure of the degree of drug interactions. […] CI values were calculated by solving the equation for different values of fa (i.e., for different degrees of cell groth inhibition).
(§5) Data were analyzed using CalcuSyn software (Biosoft, Cambridge, UK). For statistical analysis and graphs Prism software (GraphPad, San Diego, USA) was used. All the results represent the mean of at least three independent experiments.
(§6) Additional serial dilutions were prepared in serum-free culture medium to achieve a final 4× concentration. Aliquots of 50 μL of each diluted compound were added per well.
(§7) In the second set of assays, concentration-response curves for the agents tested, both alone and in two-drug combination, were performed.

The subject of assay [7] is RAMOS human lymphoma cell line. Put plainly: cells. The protocol: as §1, §2, §3, §4, §5, §6, §7
For assay [8], the system named is PC-3 human prostate cancer cell line. Put plainly: cells. The essentials: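 Cells seeded at 5,000/well, grown 24 h drug-free, then exposed to vehicle or test compounds for 72 h. Viability by MTT reduction (8 h, 37 °C), formazan dissolved in DMSO. Values given as percentage of control cell growth.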
In assay [9] the test system is JURKAT human leukemia cell line. The assay can be described thus: cells. How it is done: as §6
(§8) JURKAT and MOLT-4 were the human leukemia cell lines selected for this assay, which were obtained from the American Type Culture Collection (ATCC).
as §1, §2
(§9) b. In a second set of experiments, concentration-response curves for the agents tested, both alone and in two-drug combination, were performed, using the same methodology described in the previous paragraph.
as §3, §4, §5

Assay [10] deals with MOLT-4 human leukemia cell line. Put plainly: cells. How it is done:
as §6, §8, §1, §2, §9, §3, §4, §5

The test system of assay [11] is HepG2 human hepatocellular liver carcinoma cell line. Put plainly: MTT cytotoxicity assay in HepG2 cells: IC50 of single agents and combinations with PM01183. It is filed as cell-based. Conditions: Homo sapiens, HepG2, 72 h.
For assay [12], the system named is U87-MG human glioblastoma cell line. The assay can be described thus: cells.
Assay [13] relates to IGROV-1 human ovarian adenocarcinoma cell line. The assay can be described thus: cells.
The subject of assay [14] is RXF-393 human kidney carcinoma cell line. The assay can be described thus: cells.
Assay [15] relates to MDA-MB-231 human breast adenocarcinoma cell line. The assay can be described thus: cells.
The subject of assay [16] is HT-29 human colon adenocarcinoma cell line. The assay can be described thus: cells. Conditions: HT-29, 72 hours drug exposure, MTT. The method in brief: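 HT-29 cells (5,000/well) were attached for 24 h, then exposed to vehicle or compounds for 72 h. Viability was read by MTT reduction, with 8 h MTT at 37° C and formazan dissolved in DMSO. Values are % of control cell growth.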

One may read the IC50 as the midpoint of a concentration-inhibition curve. Usually EC50 stands for the concentration needed to bring the measured effect to its halfway point. Consider `COc1cc2c(cc1O)CCN[C@]21CS[C@@H]2c3c(OC(C)=O)c(C)c4c(c3[C@H](COC1=O)N1[C@@H]2[C@H]2c3c(cc(C)c(OC)c3O)C[C@@H]([C@@H]1O)N2C)OCO4` [ET-743, trabectedin], for which the IC50 in assay [1] (Homo sapiens, HGC-27, 72 h) turned out to be 0.0058 µM; in [2] (Homo sapiens, PANC-1, 72 h), 0.021 µM; in assay [3] (Homo sapiens, SK-MEL-2, 72 h), 0.002 µM; in assay [4] (Homo sapiens, A673, 72 h), 0.0019 µM; in assay [5], 0.0225 µM; in [8] (Homo sapiens, PC-3, 72 h) it was 0.008 µM. The concentration for half-maximal inhibition (IC50) amounted to 0.00721 µM in assay [11]; 0.005 µM in [12] (Homo sapiens, U-87 MG, 72 h); 0.00645 µM in assay [13] (Homo sapiens, IGROV-1, 72 h); 0.0096 µM in [14] (Homo sapiens, RXF 393, 72 h); 0.002 µM in [15] (Homo sapiens, MDA-MB-231, 72 h). In addition, the EC50 was 0.00862 µM in assay [6] (Homo sapiens, U-937, 72 h); 0.00955 µM in assay [7] (Homo sapiens, Ramos, 72 h); 0.00696 µM in [9] (Homo sapiens, Jurkat, 72 h); 0.00384 µM in [10] (Homo sapiens, MOLT-4, 72 h).

`CN(Cc1cnc2nc(N)nc(N)c2n1)c1ccc(C(=O)N[C@@H](CCC(=O)O)C(=O)O)cc1` [Methotrexate, methotrexate]: the IC50 was 0.033 µM in [1] (Homo sapiens, HGC-27, 72 h); 10 µM in assay [2] (Homo sapiens, PANC-1, 72 h); 100 µM in assay [3] (Homo sapiens, SK-MEL-2, 72 h); 120 µM in [8] (Homo sapiens, PC-3, 72 h); 0.0396 µM in assay [11]; 50 µM in assay [12] (Homo sapiens, U-87 MG, 72 h). In addition, the half-inhibitory concentration (IC50) was 100 µM in [13] (Homo sapiens, IGROV-1, 72 h); 175 µM in [14] (Homo sapiens, RXF 393, 72 h); 5.94 µM in assay [15] (Homo sapiens, MDA-MB-231, 72 h). The EC50 worked out at 0.0263 µM in [6] (Homo sapiens, U-937, 72 h); 5.02 µM in [7] (Homo sapiens, Ramos, 72 h); 0.145 µM in assay [9] (Homo sapiens, Jurkat, 72 h); 0.0439 µM in assay [10] (Homo sapiens, MOLT-4, 72 h).

Turning to `C/C=C1\NC(=O)[C@H](Cc2ccccc2)NC(=O)[C@@H](C(C)C)NC(=O)[C@@H]([C@@H](C)CC)NC(=O)[C@H](NC(=O)[C@H](NC(=O)[C@H](CCCN)NC(=O)[C@H]2CCCN2C(=O)[C@H](NC(=O)[C@@H](NC(=O)[C@@H](NC(=O)[C@H](NC(=O)CC[C@@H](C)CC)C(C)C)[C@@H](C)O)C(C)C)C(C)C)[C@@H](C)CC)[C@@H](C)OC(=O)[C@H](C(C)C)NC1=O` [PM02734, (4S)-MeHex-D-Val-L-Thr-L-Val-D-Val-D-Pro-L-Orn-D-allo-Ile-cyclo(D-allo-Thr-D-allo-Ile-D-Val-L-Phe-Z-Dhb-L-Val)], the IC50 was 0.95 µM in assay [1] (HGC-27, 72 hours drug exposure, MTT); 9 µM in [2] (PANC-1, 72 hours drug exposure, MTT); 1.76 µM in [3] (SK-MEL-2, 72 hours drug exposure, MTT); 3.6 µM in [4] (A673, 72 hours drug exposure, MTT); 0.214 µM in assay [16]; 0.54 µM in [8] (72 h). In addition, the IC50 in [12] (U87-MG, 72 hours drug exposure, MTT) stood at 4.08 µM; in assay [13] (IGROV-1, 72 hours drug exposure, MTT) it was 0.333 µM; in assay [14] (RXF-393, 72 hours drug exposure, MTT), 5 µM; in [15] (72 h), 2.8 µM. Besides, the EC50 in assay [6] (U-937 tumor cell line, single agent) was 6.85 µM; in assay [7] (RAMOS, 72 hours exposure, MTT), 13.6 µM; in assay [9] (JURKAT, 72 hours exposure, MTT) it was 5.5 µM; in assay [10] (MOLT-4, 72 hours exposure, MTT) it was 14.4 µM.
